Test results published in the NIST ThermoML archive (doi:10.1016/j.fluid.2013.08.024).
± gives the expanded uncertainty stated by the source.

Tests used:
[1] = Crystal; DTA
[2] = Molar enthalpy of transition or fusion; conditions: Crystal; DSC

SMILES	Normal melting temperature [1] [°C]	Molar enthalpy of transition or fusion [2] [kcal/mol]
CCCCCCCCCCCCCCCCCC(=O)OCC [ethyl octadecanoate]	34.2 ± 0.7	14.3 ± 0.382
CCCCCCCCCCCCCCCC(=O)OCC [ethyl hexadecanoate]	25.08 ± 0.7	13.3 ± 0.359
CCCCCCCCCCCC(=O)OCC [ethyl dodecanoate]	0.1 ± 0.7	9.29 ± 0.263
